This note sets out measurements from patent publication US20240294572A1, “Antimicrobial Peptides” (priority 2021, published 2024).

Experiment [1] relates to S. aureus USA300 LAC. Description: Bacterial resistance development, multiple passage experiment. The format is cell-based. Conditions: 14 passages/days at sub-MIC. As to the method:
This experiment was performed similar to the MIC determination with a few modifications as described (Mishra, et al. (2019) Proc. Natl. Acad. Sci., 116:13517-13522). In short, an exponential phase S. aureus USA300 culture (i.e., optical density at 600 nm≈0.5) was diluted and partitioned into a 96-well polystyrene microplate with ˜10^5 bacteria per well (90 μL aliquots). After treatment with 10 μL of peptide or nafcillin solutions at various concentrations, microplates were incubated at 37° C. overnight and read on a ChroMate® 4300 Microplate Reader at 630 nm (Awareness Technology, FL). Of the wells with sub-MIC levels of the peptides that retained growth, approximately half of the control wells were again reinoculated in fresh TSB with sub-MIC concertation of peptides or antibiotics to attain exponential phase for MIC determination. Up to 15 serial passages of the bacteria cultures were conducted. The increase in the fold change (MIC on given passage/MIC recorded in first day of passage) was used to determine the degree of drug resistance.

In experiment [2] the test system is S. aureus USA300 LAC. Nature of the experiment: Neutropenic murine infection model, systemic efficacy. The format is in vivo, C57BL/6 mice. Conditions: 5 mg/kg i.p. single dose 2 hours post infection, versus untreated. The procedure: Female C57BL/6 mice (6 weeks old) were purchased from Charles River. After environmental adaptation, mice were induced to be neutropenic by the administration of two doses of cyclophosphamide on Day 1 (150 mg/kg) and Day 4 (100 mg/kg). On Day 5, mice were infected with S. aureus USA300 (˜2×10^6 CFU per mouse) via intraperitoneal injection (i.p.) (Lakshmaia, et al. (2020) Proc. Natl. Acad. Sci., 117:19446-19454). For the treatment groups, mice were i.p. treated 2 hours post infection with peptides at a single dose of 5 mg/kg. This bacterial strain was able to disseminate to different organs 2 hours post infection (Lakshmaia, et al. (2020) Proc. Natl. Acad. Sci., 117:19446-19454). At the end of the experiments, all the animals were sacrificed according to institutional guidelines. Organs, including spleen, liver, lung, and kidney, were harvested, weighed, and placed in 1 mL of sterile PBS and stored on ice. Harvested organs were subsequently homogenized using an Omni Homogenizer. Proper dilutions were made to get countable colonies. The homogenates were plated onto blood agar plates and incubated overnight at 37° C. The CFU of each murine tissue was plotted as an individual point, and error bars represent the deviation within the experimental group. * indicates p<0.05, **p<0.01, ***p<0.001, and NS means no significance (determined by Mann-Whitney test).

Experiment [3] has as its system S. aureus USA300 LAC. Description: Catheter-associated murine biofilm model. The note with it: single dose 15 mg/kg (250 μg) into and around catheter, day 3. The format is in vivo, mice. As to the method: Peptide potency was evaluated in the catheter model as described (Wang, et al. (2014) ACS Chem. Biol., 9:1997-2002; Heim, et al. (2014) Methods Mol. Biol., 1106:183-191). On the day of infection, mice were anesthetized using ketamine/xylazine (100/10 mg/kg). A small incision was made on the left flank region of the mouse, and using small blunt spatula, a pouch was made for catheter insertion. A sterile catheter with a length of 1 cm was inserted into the pouch aseptically. The wound was sealed using wound closure VetBond™ glue. Bacterial inoculum (20 μL with 10^3 CFU) was injected into the lumen of the catheter. Two hours post infection, the peptide was injected at 15 mg/kg (50 μL at each of the five sites in and around the catheter). Mice were allowed full recovery from anesthesia in an oxygen-enriched chamber. Three days after infection, untreated and treated animal groups were CO2 euthanized and the tissue around the catheter was harvested along with the catheter. A bacterial uninfected catheter group was included as a negative control. All the catheters were sonicated at 37 kHz for 15 minutes to release the bacteria in biofilms, and the tissues were homogenized. […] Degree of significance was represented as *p<0.05**p<0.01, ***p<0.001, and NS means no significance (determined by nonparametric, unpaired, Mann-Whitney test).

Experiment [4] concerns S. aureus USA300 transposon mutant SAUSA300_0394. Description: Antimicrobial susceptibility of transposon mutant. The format is cell-based. Further details: key: No = no MIC changes of C10-KR8d against the WT and the mutant S. aureus strains measured in 50% TSB. The note with it: mutant SAUSA300_0394 versus WT. The procedure:
(§1) The antimicrobial susceptibility of over 20 MRSA transposon mutants were also tested, based on a transposon library screening, in the presence of LL-37 peptides (Golla, et al. (2020) ACS Infect. Dis., 6:1866-1881). This Nebraska Transposon Mutant Library of S. aureus USA300 consists of 1920 mutants, each with one nonessential gene disabled due to a transposon insertion (Fey, et al. (2013) mBio 4:e00537-12). The correct insertion of the transposon to each Staph mutant had been verified (Golla, et al. (2020) ACS Infect. Dis., 6:1866-1881). Antimicrobial susceptibility to the new peptide C10-KR8d was evaluated in the same manner as MIC assays. Susceptible strains could be inhibited at a peptide concentration lower than the MIC against the wild strain S. aureus JE2.

In experiment [5] the test system is S. aureus USA300 transposon mutant SAUSA300_0829 (lipA). Nature of the experiment: Antimicrobial susceptibility of transposon mutant. The format is cell-based. Also on record: key: No = no MIC changes of C10-KR8d against the WT and the mutant S. aureus strains measured in 50% TSB. Conditions: mutant SAUSA300_0829 lipA versus WT. As to the method:
as §1

Experiment [6] relates to S. aureus USA300 transposon mutant SAUSA300_1097 (pyrF). Nature of the experiment: Antimicrobial susceptibility of transposon mutant. The note with it: mutant SAUSA300_1097 pyrF versus WT. Also on record: key: No = no MIC changes of C10-KR8d against the WT and the mutant S. aureus strains measured in 50% TSB. The format is cell-based. As to the method: as §1
In experiment [7] the test system is S. aureus USA300 transposon mutant SAUSA300_1465. Nature of the experiment: Antimicrobial susceptibility of transposon mutant. The format is cell-based. Further details: key: No = no MIC changes of C10-KR8d against the WT and the mutant S. aureus strains measured in 50% TSB. Conditions: mutant SAUSA300_1465 versus WT. As to the method:
as §1

Experiment [8] deals with S. aureus USA300 transposon mutant SAUSA300_1867. Description: Antimicrobial susceptibility of transposon mutant. The format is cell-based. Further details: key: No = no MIC changes of C10-KR8d against the WT and the mutant S. aureus strains measured in 50% TSB. Conditions: mutant SAUSA300_1867 versus WT. The procedure:
as §1

The structures appear in SMILES notation. Non-standard residues stand in square brackets, D forms with d. Residues, ends and D or L forms follow the SMILES beside them. *: point of attachment. Decanoyl = CCCCCCCCCC(=O)*

Turning to `CCCCCCCCCC(=O)N[C@H](CCCCN)C(=O)N[C@H](CCCNC(=N)N)C(=O)N[C@@H](C(=O)N[C@H](Cc1c[nH]c2ccccc12)C(=O)N[C@H](CCC(N)=O)C(=O)N[C@H](CCCNC(=N)N)C(=O)N[C@@H](C(=O)N[C@H](CCCCN)C(N)=O)[C@H](C)CC)[C@H](C)CC` [Peptide C10-KR8d] (Decanoyl-[dK][dR][dI][dW][dQ][dR][dI][dK]-NH2), the “MIC increase in multiple passage experiment” value in the experiment on S. aureus USA300 LAC [1] was “no changes”. The “CFU decrease in mouse lung and liver” value in the experiment on S. aureus USA300 LAC [2] is listed as 0.5-1 log. Moreover, the “CFU decrease in spleen and kidney” value in the experiment on S. aureus USA300 LAC [2] was “not in spleen and kidney”. In the experiment with S. aureus USA300 LAC [3], the “bacterial burden (CFU) on catheter and surrounding tissue” value is listed as “clear decrease in bacterial burden”. Further, the “Susceptible?” value in experiment [4], in experiment [5], in experiment [6], in experiment [7] and in experiment [8] was “No” each time.
